# Legend:
# [1] = tested on: patients with essential tremor; assay: T-CALM: treatment-emergent adverse events, discontinuations, dosage reductions; assay type: in vivo, human
# Protocol: T-CALM employed the following dose titration scheme: Week 1 at 4 mg BID (8 mg/day), Week 2 at 8 mg BID (16 mg/day) and Weeks 3 & 4 at 10 mg BID (20 mg/day). […] Adverse Events were coded using MedDRA V20.0. Only treatment emergent adverse events with an onset date and time after the initiation of study drug until 30 days after discontinuation of drug were reported. For subjects who experience the same coded event more than once, a single event was presented. Adverse events were attributed to a study week based on the onset date, i.e. events that started on or after Visit 1 and prior to Visit 2 were classified as Study Week 1.
# Adverse events are characterized by maximum severity, drug-related adverse events, serious adverse events and adverse events leading to discontinuation of study.
# Safety procedures involved collection of all TEAEs (treatment-emergent adverse events) coded into the Medical Dictionary for Regulatory Activities (MedDRA) version 20. Adverse events were classified by maximum severity, drug-related adverse events, serious adverse events, and adverse events leading to patient discontinuation.
# [2] = tested on: patients with essential tremor; assay: T-CALM: TETRAS activities of daily living subscale; assay type: in vivo, human; conditions: for TETRAS-ADL Score change from baseline, Median (minimum, maximum): Day 15, post-hoc
# Protocol: The sum of the individual scores provides the overall score, ranging from 0 to 48. The complete TETRAS ADL Subscale is as follows.
# Analyses of the TETRAS-ADL was conducted using the same type of ANCOVA model as described for the TETRAS-PS, using two-sided tests at the alpha=0.05 level of significance (FIG. 2 and Table 2).
# Both sets of scores were statistically analyzed.
# [3] = Day 15, change from baseline, N = 39
# [4] = Day 28, change from baseline, N = 37
smiles,measurement,setting,value
CC(C)c1ccc(CC(=O)N[C@H](C)c2ccc(OCC(F)(F)F)cn2)cc1 [CX-8998],"AE Neoplasms, number of subjects",[1]; onset in study week 2,0
same,"AE Psychiatric Disorders, number of subjects",[1]; onset in study week 2,2
same,"AE Psychiatric Disorders, percent of subjects",[1]; onset in study week 2,(4%)
same,"AE Skin and Subcutaneous Tissue Disorders, number of subjects",[1]; onset in study week 2,0
same,"AE Vascular Disorders, number of subjects",[1]; onset in study week 2,1
same,"AE Vascular Disorders, percent of subjects",[1]; onset in study week 2,(2%)
same,"AE Any Event, percent of subjects",[1]; onset in study week 3,(17%)
same,"AE Central Nervous System Disorders, number of subjects",[1]; onset in study week 3,1
same,"AE Central Nervous System Disorders, percent of subjects",[1]; onset in study week 3,(2%)
same,"AE Ear and Labyrinth Disorders, number of subjects",[1]; onset in study week 3,0
same,"AE Eye Disorders, number of subjects",[1]; onset in study week 3,0
same,"AE Gastrointestinal Disorders, number of subjects",[1]; onset in study week 3,1
same,"AE Gastrointestinal Disorders, percent of subjects",[1]; onset in study week 3,(2%)
same,"AE Infections and Infestations, number of subjects",[1]; onset in study week 3,2
same,"AE Infections and Infestations, percent of subjects",[1]; onset in study week 3,(4%)
same,"AE Injury, Poisoning and Procedural Complications, percent of subjects",[1]; onset in study week 3,(2%)
same,"AE Investigations, number of subjects",[1]; onset in study week 3,1
same,"AE Investigations, percent of subjects",[1]; onset in study week 3,(2%)
same,"AE Metabolism and Nutrition Disorders, number of subjects",[1]; onset in study week 3,1
same,"AE Metabolism and Nutrition Disorders, percent of subjects",[1]; onset in study week 3,(2%)
same,"AE Musculoskeletal and Connective Tissue Disorders, number of subjects",[1]; onset in study week 3,1
same,"AE Musculoskeletal and Connective Tissue Disorders, percent of subjects",[1]; onset in study week 3,(2%)
same,"AE Neoplasms, number of subjects",[1]; onset in study week 3,0
same,"AE Psychiatric Disorders, number of subjects",[1]; onset in study week 3,3
same,"AE Psychiatric Disorders, percent of subjects",[1]; onset in study week 3,(6%)
same,"AE Respiratory, Thoracic and Mediastinal Disorders, percent of subjects",[1]; onset in study week 3,(2%)
same,"AE Skin and Subcutaneous Tissue Disorders, number of subjects",[1]; onset in study week 3,0
same,"AE Vascular Disorders, number of subjects",[1]; onset in study week 3,0
same,"AE Any Event, percent of subjects",[1]; onset in study week 4,(4%)
same,"AE Central Nervous System Disorders, number of subjects",[1]; onset in study week 4,0
same,"AE Ear and Labyrinth Disorders, number of subjects",[1]; onset in study week 4,0
same,"AE Eye Disorders, number of subjects",[1]; onset in study week 4,0
same,"AE Gastrointestinal Disorders, number of subjects",[1]; onset in study week 4,0
same,"AE Infections and Infestations, number of subjects",[1]; onset in study week 4,0
same,"AE Investigations, number of subjects",[1]; onset in study week 4,1
same,"AE Investigations, percent of subjects",[1]; onset in study week 4,(2%)
same,"AE Metabolism and Nutrition Disorders, number of subjects",[1]; onset in study week 4,1
same,"AE Metabolism and Nutrition Disorders, percent of subjects",[1]; onset in study week 4,(2%)
same,"AE Musculoskeletal and Connective Tissue Disorders, number of subjects",[1]; onset in study week 4,0
same,"AE Neoplasms, number of subjects",[1]; onset in study week 4,0
same,"AE Psychiatric Disorders, number of subjects",[1]; onset in study week 4,2
same,"AE Psychiatric Disorders, percent of subjects",[1]; onset in study week 4,(4%)
same,"AE Skin and Subcutaneous Tissue Disorders, number of subjects",[1]; onset in study week 4,0
same,"AE Vascular Disorders, number of subjects",[1]; onset in study week 4,0
same,"AE Any Event, percent of subjects",[1]; onset in study week >4,(2%)
same,"AE Central Nervous System Disorders, number of subjects",[1]; onset in study week >4,1
same,"AE Central Nervous System Disorders, percent of subjects",[1]; onset in study week >4,(2%)
same,"AE Ear and Labyrinth Disorders, number of subjects",[1]; onset in study week >4,0
same,"AE Eye Disorders, number of subjects",[1]; onset in study week >4,0
same,"AE Gastrointestinal Disorders, number of subjects",[1]; onset in study week >4,0
same,"AE Infections and Infestations, number of subjects",[1]; onset in study week >4,0
same,"AE Investigations, number of subjects",[1]; onset in study week >4,0
same,"AE Metabolism and Nutrition Disorders, number of subjects",[1]; onset in study week >4,0
same,"AE Musculoskeletal and Connective Tissue Disorders, number of subjects",[1]; onset in study week >4,0
same,"AE Neoplasms, number of subjects",[1]; onset in study week >4,0
same,"AE Psychiatric Disorders, number of subjects",[1]; onset in study week >4,0
same,"AE Skin and Subcutaneous Tissue Disorders, number of subjects",[1]; onset in study week >4,0
same,"AE Vascular Disorders, number of subjects",[1]; onset in study week >4,0
same,"Subjects with improvement of at least 5 points by TETRAS-ADL score, number","[2]; Day 15, N 39",18
same,"TETRAS-ADL Score, subjects with 0 change, n (%)",[2]; [3],2 (5.1%)
same,"TETRAS-ADL Score, subjects with >0 to 1 point improvement, n (%)",[2]; [3],5 (12.8%)
same,"TETRAS-ADL Score, subjects with >0 to 1 point worsening, n (%)",[2]; [3],1 (2.6%)
same,"TETRAS-ADL Score, subjects with >1 to 2.5 point improvement, n (%)",[2]; [3],2 (5.1%)
same,"TETRAS-ADL Score, subjects with >1 to 2.5 point worsening, n (%)",[2]; [3],3 (7.7%)
same,"TETRAS-ADL Score, subjects with >2.5 to 5 point improvement, n (%)",[2]; [3],7 (17.9%)
same,"TETRAS-ADL Score, subjects with >2.5 to 5 point worsening, n (%)",[2]; [3],3 (7.7%)
same,"TETRAS-ADL Score, subjects with >5 to 10 point improvement, n (%)",[2]; [3],11 (28.2%)
same,"TETRAS-ADL Score, subjects with >5 to 10 point worsening, n (%)",[2]; [3],0
same,"TETRAS-ADL Score, subjects with >10 point improvement, n (%)",[2]; [3],5 (12.8%)
same,"TETRAS-ADL Score, subjects with >10 point worsening, n (%)",[2]; [3],0
same,"TETRAS-ADL Score change from baseline, Median (minimum, maximum)",[2]; patients Minimally Improved by CGI-I,"−2.0 (−11, 3)"
same,"TETRAS-ADL Score change from baseline, Median (minimum, maximum)",[2]; patients Minimally Improved by PGIC,"−4.0 (−13, 4)"
same,"Subjects with improvement of at least 5 points by TETRAS-ADL score, number","[2]; Day 28, N 37",11
same,"TETRAS-ADL Score, subjects with 0 change, n (%)",[2]; [4],5 (13.5%)
same,"TETRAS-ADL Score, subjects with >0 to 1 point improvement, n (%)",[2]; [4],2 (5.4%)
same,"TETRAS-ADL Score, subjects with >0 to 1 point worsening, n (%)",[2]; [4],3 (8.1%)
same,"TETRAS-ADL Score, subjects with >1 to 2.5 point improvement, n (%)",[2]; [4],3 (8.1%)
same,"TETRAS-ADL Score, subjects with >1 to 2.5 point worsening, n (%)",[2]; [4],3 (8.1%)
same,"TETRAS-ADL Score, subjects with >2.5 to 5 point improvement, n (%)",[2]; [4],7 (18.9%)
same,"TETRAS-ADL Score, subjects with >2.5 to 5 point worsening, n (%)",[2]; [4],3 (8.1%)
same,"TETRAS-ADL Score, subjects with >5 to 10 point improvement, n (%)",[2]; [4],6 (16.2)
same,"TETRAS-ADL Score, subjects with >5 to 10 point worsening, n (%)",[2]; [4],0
same,"TETRAS-ADL Score, subjects with >10 point improvement, n (%)",[2]; [4],5 (13.5%)
same,"TETRAS-ADL Score, subjects with >10 point worsening, n (%)",[2]; [4],0

# Source: patent publication US20250312323A1 (Cavion, Inc., priority 2018, published 2025)
